Biological target: AsrK (vfu_B00258)
Assay: ITC in borate-depleted buffer; also inhibits autokinase activity of purified full-length AsrK
Assay type: binding, Vibrio furnissii

Molecule `CC(=O)C(=O)[C@@H](O)CO` [DPD, 4,5-dihydroxy-2,3-pentanedione] has a Kd of 38 ± 4 nM.
